# Experimental data taken from patent publication US4423210A, “Intermediates for the preparation of 3-demethoxyfortimicins” (Abbott Laboratories, priority 1982, dated 1983).
# Structures can show the parent of a compound that is named as a salt. Where two headings read alike, the source gives them in different places.
# Key:
# E. coli BL 3676 (Res) = experiment: in vitro antibiotic activity, two-fold agar dilution (MIC); format: cell-based; conditions: Escherichia coli
# Experimental: (§1) The in vitro activity of 3-demethoxyfortimicin A of Example 10 is determined by a two-fold dilution test using 10 ml. of Mueller-Hinton agar per Petri plate. The agar plates are innoculated with approximately 1×10^5 of the test organisms indicated in Table II, delivered to the agar surface by a Steers replicator. The innoculated plates are incubated for 24 hours at 35° C. in the presence of varying concentrations of 3-demethoxyfortimicin A tetrahydrochloride of Example 10 or fortimicin A sulfate as a comparative antibiotic.
# E. coli JUHL = experiment: as above; format: cell-based; conditions: Escherichia coli
# Experimental: as §1
# [1] = test system: Enterobacter aerogenes 13048; experiment: as above; format: cell-based
# Experimental: as §1
# Kleb. pneumoniae KY 4262 = experiment: as above; format: cell-based; conditions: Klebsiella pneumoniae
# Experimental: as §1
# [2] = test system: Proteus mirabilis Fin. #9; experiment: as above; format: cell-based
# Experimental: as §1
# Proteus rettgeri U6333 = experiment: as above; format: cell-based; conditions: Providencia rettgeri
# Experimental: as §1
# Proteus vulgaris JJ = experiment: as above; format: cell-based
# Experimental: as §1
# Providencia 1577 = experiment: as above; format: cell-based
# Experimental: as §1
# [3] = test system: Pseudo. aeruginosa BMH #10; experiment: as above; format: cell-based; conditions: Pseudomonas aeruginosa
# Experimental: as §1
# [4] = test system: Pseudo. aeruginosa KY 8512; experiment: as above; format: cell-based; conditions: Pseudomonas aeruginosa
# Experimental: as §1
# [5] = test system: Pseudo. aeruginosa KY 8516; experiment: as above; format: cell-based; conditions: Pseudomonas aeruginosa
# Experimental: as §1
# Serratia marcescens 4003 = experiment: as above; format: cell-based
# Experimental: as §1
# Shigella sonnei 9290 = experiment: as above; format: cell-based; conditions: Mueller-Hinton agar, 24 hours, 35° C.
# Experimental: as §1
# Staph. aureus Smith = experiment: as above; format: cell-based; conditions: Staphylococcus aureus
# Experimental: as §1
# Strep. faecalis 10541 = experiment: as above; format: cell-based
# Experimental: as §1
# E. coli 76-2 = experiment: as above; format: cell-based, Escherichia coli
# Experimental: as §1
# Kleb. pneumoniae 10031 = experiment: as above; format: cell-based, Klebsiella pneumoniae
# Experimental: as §1
# Pseudo aeruginosa 27853 = experiment: as above; format: cell-based, Pseudomonas aeruginosa
# Experimental: as §1
# Pseudo. aeruginosa 209 = experiment: as above; format: cell-based, Pseudomonas aeruginosa
# Experimental: as §1
# Sal. typhimurium Ed. #9 = experiment: as above; format: cell-based, Salmonella typhimurium; conditions: Salmonella enterica
# Experimental: as §1
# [6] = test system: strains tested (Table II); experiment: overall antibiotic activity relative to fortimicin A sulfate; format: cell-based
# Experimental: as §1
smiles,measurement,setting,value
"COC1C(O)C(N)C(OC2OC(C(C)N)CCC2N)C(O)C1N(C)C(=O)CN (stereo not drawn) [Fortimicin A Sulfate, fortimicin A sulfate, reference compound]",MIC,E. coli BL 3676 (Res); 24 h,25 µg/mL
same,MIC,E. coli JUHL; 24 h,3.1 µg/mL
same,MIC,"[1]; Klebsiella aerogenes, 13048, 24 h",3.1 µg/mL
same,MIC,"Kleb. pneumoniae KY 4262; KY4262, 24 h",6.2 µg/mL
same,MIC,"[2]; Proteus mirabilis, 24 h",3.1 µg/mL
same,MIC,"Proteus rettgeri U6333; U6333, 24 h",12.5 µg/mL
same,MIC,"Proteus vulgaris JJ; Proteus vulgaris, 24 h",3.1 µg/mL
same,MIC,"Providencia 1577; Providencia, 1577, 24 h",1.56 µg/mL
same,MIC,[3]; 24 h,0.78 µg/mL
same,MIC,"[4]; KY8512, 24 h",6.2 µg/mL
same,MIC,"[5]; KY8516, 24 h",6.2 µg/mL
same,MIC,"Serratia marcescens 4003; Serratia marcescens, 4003, 24 h",3.1 µg/mL
same,MIC,Shigella sonnei 9290,6.2 µg/mL
same,MIC,Staph. aureus Smith; 24 h,0.78 µg/mL
same,MIC,"Strep. faecalis 10541; Enterococcus faecalis, 10541, 24 h",50 µg/mL
same,MIC,"E. coli 76-2; Escherichia coli, 762, 24 h",3.1 µg/mL
same,MIC,"Kleb. pneumoniae 10031; Klebsiella pneumoniae, 10031, 24 h",1.56 µg/mL
same,MIC,"Pseudo aeruginosa 27853; Pseudomonas aeruginosa, 27853, 24 h",12.5 µg/mL
same,MIC,"Pseudo. aeruginosa 209; Pseudomonas aeruginosa, 209, 24 h",100 µg/mL
same,MIC,"Sal. typhimurium Ed. #9; TYPHIMURIUM, 24 h",3.1 µg/mL
CC(N)C1CCC(N)C(OC2C(N)C(O)CC(N(C)C(=O)CN)C2O)O1 (stereo not drawn) [3-Demethoxyfortimicin A tetrahydrochloride],MIC,"E. coli BL 3676 (Res); E. coli BL 3676 (Res), Mueller-Hinton agar, 24 hours, 35° C., read-out: MIC",25 µg/mL
same,MIC,"E. coli JUHL; E. coli JUHL, Mueller-Hinton agar, 24 hours, 35° C., read-out: MIC",3.1 µg/mL
same,MIC,"[1]; Klebsiella aerogenes, Enterobacter aerogenes 13048, Mueller-Hinton agar, 24 hours, 35° C., read-out: MIC",3.1 µg/mL
same,MIC,"Kleb. pneumoniae KY 4262; KY4262, Kleb. pneumoniae KY 4262, Mueller-Hinton agar, 24 hours, 35° C., read-out: MIC",3.1 µg/mL
same,MIC,"[2]; Proteus mirabilis Fin. #9, Mueller-Hinton agar, 24 hours, 35° C., read-out: MIC",3.1 µg/mL
same,MIC,"Proteus rettgeri U6333; Proteus rettgeri U6333, Mueller-Hinton agar, 24 hours, 35° C., read-out: MIC",6.2 µg/mL
same,MIC,"Proteus vulgaris JJ; Proteus vulgaris JJ, Mueller-Hinton agar, 24 hours, 35° C., read-out: MIC",3.1 µg/mL
same,MIC,"Providencia 1577; Providencia 1577, Mueller-Hinton agar, 24 hours, 35° C., read-out: MIC",1.56 µg/mL
same,MIC,"[3]; Pseudo. aeruginosa BMH #10, Mueller-Hinton agar, 24 hours, 35° C., read-out: MIC",0.78 µg/mL
same,MIC,"[4]; KY8512, Pseudo. aeruginosa KY 8512, Mueller-Hinton agar, 24 hours, 35° C., read-out: MIC",3.1 µg/mL
same,MIC,"[5]; KY8516, Pseudo. aeruginosa KY 8516, Mueller-Hinton agar, 24 hours, 35° C., read-out: MIC",3.1 µg/mL
same,MIC,"Serratia marcescens 4003; Serratia marcescens 4003, Mueller-Hinton agar, 24 hours, 35° C., read-out: MIC",1.56 µg/mL
same,MIC,Shigella sonnei 9290,3.1 µg/mL
same,MIC,"Staph. aureus Smith; Staph. aureus Smith, Mueller-Hinton agar, 24 hours, 35° C., read-out: MIC",0.78 µg/mL
same,MIC,"Strep. faecalis 10541; Enterococcus faecalis, Strep. faecalis 10541, Mueller-Hinton agar, 24 hours, 35° C., read-out: MIC",25 µg/mL
same,MIC,"E. coli 76-2; Escherichia coli, 762, E. coli 76-2, Mueller-Hinton agar, 24 hours, 35° C., read-out: MIC",1.56 µg/mL
same,MIC,"Kleb. pneumoniae 10031; Klebsiella pneumoniae, Kleb. pneumoniae 10031, Mueller-Hinton agar, 24 hours, 35° C., read-out: MIC",1.56 µg/mL
same,MIC,"Pseudo aeruginosa 27853; Pseudomonas aeruginosa, Pseudo aeruginosa 27853, Mueller-Hinton agar, 24 hours, 35° C., read-out: MIC",6.2 µg/mL
same,MIC,"Pseudo. aeruginosa 209; Pseudomonas aeruginosa, Pseudo. aeruginosa 209, Mueller-Hinton agar, 24 hours, 35° C., read-out: MIC",100 µg/mL
same,MIC,"Sal. typhimurium Ed. #9; Sal. typhimurium Ed. #9, Mueller-Hinton agar, 24 hours, 35° C., read-out: MIC",3.1 µg/mL
same,activity relative to that of fortimicin A sulfate,[6]; against many of the susceptible strains tested,~200%
same,overall activity relative to that of fortimicin A sulfate,"[6]; overall, all strains of Table II",approximately 137%
